Assay: Pharmacokinetic evaluation: donepezil concentration in plasma after intramuscular injection of solution phase compositions
Format: in vivo
Settings: SD rats; for release pattern: compared among DEP, DEM, DEPD, DEHD and DES formulations (40 mg/kg as donepezil) or with donepezil
Method: The main ingredients of Table 1 above, castor oil, and benzyl benzoate were mixed according to the components and amounts of Table 2 below, and stirred at room temperature for 0.5 to 3 hours to prepare solution phase compositions.
Four male SD rats with an average weight of 300 g were intramuscularly injected with a dose of 4 mg/kg of donepezil in the formulation of donepezil (D) and 40 mg/kg of donepezil each in the DEP, DEM, DEPD, DEHD, and DES formulations, and the concentrations of donepezil in plasma samples of SD rats were analyzed using LC-MS/MS.

SMILES: CCCCCCCCCCCCCCOCC(=O)OC1=C(CC2CCN(Cc3ccccc3)CC2)Cc2cc(OC)c(OC)cc21 [DEP, 2-((1-benzylpiperidin-4-yl)methyl)-5,6-dimethoxy-1H-inden-3-yl 2-(tetradecyloxy) acetate]
- release of drug immediately after administration (D 4 mg/kg, DEP 40 mg/kg as donepezil): without rapid release of drug after administration
- release pattern: most preferred for the sustained-release composition
- release pattern (listed as donepezil ether palmitate (DEP)): better release pattern than that of donepezil

Reference: US20230303491A1, “DONEPEZIL ETHER PALMITATE OR PHARMACEUTICALLY ACCEPTABLE SALT THEREOF” (CHONG KUN DANG PHARMACEUTICAL CORP., priority 2020, published 2023)
